Experimental findings from article PMC8780828 (Viruses, 2021) are described below.

“Also recorded” adds a separate entry of the source. Read-outs that look alike come from different tables or passages of the source.

Data set [1] relates to pseudovirus NL4-3ΔEnv-NanoLuc/SARS-CoV. Nature of the data set: microbe, parasite or virus in culture. The class given is cell-based. Conditions: Severe acute respiratory syndrome coronavirus, 293T/ACE2; n=3.
Data set [2] concerns control pseudovirus NL4-3.Luc.R-E-/A-MLV. Nature of the data set: Control pseudovirus A-MLV assay in 293T/ACE2 cells. Conditions: NL43, 293T/ACE2. The class given is cell-based, amphotropic murine leukemia virus (A-MLV).
Data set [3] has as its system pseudovirus NL4-3ΔEnv-NanoLuc/MERS-CoV. Nature of the data set: microbe, parasite or virus in culture. Conditions: Middle East respiratory syndrome-related coronavirus, Huh-7; n=3; read-out: IC50. The class given is cell-based.
The test system is the same in data set [4]. Nature of the data set: microbe, parasite or virus in culture. It is filed as cell-based. Conditions: Middle East respiratory syndrome-related coronavirus, MRC5; n=3; read-out: IC50.
Data set [5] deals with pseudovirus NL4-3ΔEnv-NanoLuc/SARS-CoV-2. Nature of the data set: organism not typed. The class given is cell-based. Conditions: HT-1080; n=3.
The test system of data set [6] is NL4-3ΔEnv-NanoLuc/SARS-CoV-2. Nature of the data set: organism not typed. It is filed as cell-based. Conditions: for IC50: read-out: IC50 (range over the three cell lines).
The target in data set [7] is malate dehydrogenase (MDH). The class given is biochemical.
Data set [8] concerns pseudovirus NL4-3ΔEnv-NanoLuc/SARS-CoV. Nature of the data set: microbe, parasite or virus in culture. It is filed as cell-based. Conditions: Severe acute respiratory syndrome coronavirus, HT-1080; n=3; read-out: IC50.
The target in the next data set is β-lactamase. The class given is biochemical.
A further data set concerns Trypsin. It is filed as biochemical.
Data set [9] has as its system pseudovirus NL4-3ΔEnv-NanoLuc/SARS-CoV. Nature of the data set: microbe, parasite or virus in culture. The class given is cell-based. Conditions: Severe acute respiratory syndrome coronavirus, A549-ACE2; n=3; read-out: IC50.
Data set [10] deals with pseudovirus NL4-3ΔEnv-NanoLuc/SARS-CoV-2. Nature of the data set: organism not typed. The class given is cell-based. Conditions: 293T/ACE2.
Data set [11] shares this test system. Nature of the data set: organism not typed. It is filed as cell-based. Conditions: A549-ACE2; n=3.
The test system of data set [12] is SARS-CoV-2 (US_WA-1/2020). The class given is cell-based.
The test system of data set [13] is pseudovirus NL4-3ΔEnv-NanoLuc/SARS-CoV-2. Nature of the data set: SARS-CoV-2 pseudovirus assay with pre-treated 293T/ACE2 cells. It is filed as cell-based. Conditions: 293T/ACE2 cells pre-treated with compound 30 min before infection.
In another data set the test system is MERS-CoV pseudovirus. Nature of the data set: microbe, parasite or virus in culture. The class given is cell-based.
Data set [14] in a line: in vitro. Conditions: human.
Data set [15] is described as follows: in vitro. Conditions: human. This is another data set of the same source.
Data set [16] in a line: in vitro. Conditions: both, human, microsomes, pH 7.4.

The IC50 is the concentration needed to halve the response being measured. What is called half-life is the time in which the quantity being followed falls by half. Read a high half-life as slow decline. Usually microsomal CLint stands for the capacity of the preparation to metabolise the compound, expressed as a volume cleared per time. Higher therefore signals faster metabolism.

In the case of `O=C(O)c1cc(-c2ccc(/C=C3\SC(=S)N(CCc4ccccc4)C3=O)o2)ccc1F` [NBCoV3], the concentration for half-maximal inhibition (IC50) in data set [1] is 0.0178 ± 0.004 µM; in data set [2], 0.96 ± 0.057 µM; in [3] it was 0.158 ± 0.014 µM; in [4], 0.123 ± 0.017 µM; in data set [5], 0.064 ± 0.018 µM; in data set [6], 0.0601 to 0.12 µM. The IC50 was above 2 µM in data set [7]; 0.0257 ± 0.0006 µM in data set [8]; above 2 µM against β-lactamase; above 2 µM in the data set with Trypsin; 0.157 ± 0.0125 µM in data set [9]; 0.0601 ± 0.0085 µM in data set [10]. Moreover, the IC50 in [11] was 0.12 ± 0.005 µM; in [13], above 2 µM. In addition, the “IC100 (range of IC100 values detected in the three cell lines)” value in data set [6] fell in the range of 0.5 to 1.2 µM. The molecule also came in with an IC100 in [12] above 10 µM.

`Cc1ccc(-c2ccc(/C=C3\SC(=S)N(CCc4ccccc4)C3=O)o2)cc1C(=O)O` [NBCoV4]: the half-inhibitory concentration (IC50) in data set [1] was 0.08 ± 0.002 µM; in data set [2] it was 1.62 ± 0.115 µM; in [3], 0.131 ± 0.006 µM; in data set [4] it was 0.08 ± 0.018 µM; in [5], 0.0477 ± 0.016 µM; in [6] it was 0.026 to 0.073 µM. The IC50 in [7] is above 2 µM; in [8] it was 0.054 ± 0.0035 µM; against β-lactamase, above 2 µM; with Trypsin, above 2 µM; in data set [9] it was 0.1 ± 0.013 µM; in [10], 0.026 ± 0.001 µM. Besides, the IC50 was 0.073 ± 0.0041 µM in [11] and above 2 µM in [13]. Moreover, the “IC100 (range of IC100 values detected in the three cell lines)” value in data set [6] fell in the range of 0.3 to 1 µM. For the same molecule, the IC100 in [12] is reported as above 10 µM.

As for `Cc1c(C(=O)O)cccc1-c1ccc(/C=C2\SC(=S)N(CCc3ccccc3)C2=O)o1` [NBCoV5], the concentration for half-maximal inhibition (IC50) was 1.85 ± 0.179 µM in data set [1]; above 2 µM in data set [2]; above 2 µM in data set [3]; above 2 µM in data set [4]; 1.05 ± 0.252 µM in data set [5]; above 2 µM in data set [7]. Besides, the IC50 in data set [8] was 1.76 ± 0.33 µM; against β-lactamase it was above 2 µM; with Trypsin, above 2 µM; in [9], above 2 µM; in [10], 1.21 ± 0.24 µM; in [11], above 2 µM. Further, the IC50 in data set [13] is above 2 µM. Moreover, the “IC100 (range of IC100 values detected in the three cell lines)” value in data set [6] is reported as above 2 µM. Moreover, the MERS-CoV inhibitory activity entry in the data set on MERS-CoV pseudovirus is “no MERS-CoV inhibitory activity”. In data set [12], this molecule came in with an IC100 above 10 µM.

Turning to `CCc1ccc(-c2ccc(/C=C3\SC(=S)N(CCc4ccccc4)C3=O)o2)cc1C(=O)O` [NBCoV6], the 50% inhibitory concentration (IC50) in data set [1] was 0.175 ± 0.007 µM; in [2], above 2 µM; in data set [3], 0.569 ± 0.031 µM; in data set [4] it was 0.945 ± 0.077 µM; in [5], 0.245 ± 0.005 µM; in [8], 0.133 ± 0.0095 µM. The concentration for half-maximal inhibition (IC50) in data set [9] was 0.867 ± 0.062 µM; in data set [10], 0.185 ± 0.0058 µM; in data set [11], 0.613 ± 0.072 µM; in [13], above 2 µM. Besides, the “IC100 (range of IC100 values detected in the three cell lines)” value in [6] was in the range of 1 to 3 µM. In data set [12], this molecule came in with an IC100 above 10 µM.

On to `O=C(O)c1cccc(-c2ccc(/C=C3\SC(=S)N(CCc4ccccc4)C3=O)o2)c1F` [NBCoV7], for which the half-inhibitory concentration (IC50) was 0.111 ± 0.0017 µM in data set [1]; above 2 µM in data set [2]; 0.933 ± 0.153 µM in [3]; 0.927 ± 0.0635 µM in data set [4]; 0.29 ± 0.057 µM in data set [5]; 0.052 ± 0.0089 µM in data set [8]. For the same molecule, the half-inhibitory concentration (IC50) in data set [9] was 0.271 ± 0.076 µM; in data set [10], 0.298 ± 0.06 µM; in [11] it was 0.416 ± 0.025 µM; in data set [13], above 2 µM. The “IC100 (range of IC100 values detected in the three cell lines)” value in [6] is 1 to 3 µM. The same molecule gave an IC100 in [12] above 10 µM.

Regarding `O=C(O)c1cc(-c2ccc(/C=C3\SC(=S)N(CCc4ccccc4)C3=O)o2)ccc1Br` [NBCoV8], the IC50 in data set [1] is 0.128 ± 0.0067 µM; in data set [2] it was above 2 µM; in data set [3], 0.509 ± 0.043 µM; in [4] it was 0.559 ± 0.066 µM; in data set [5], 0.094 ± 0.009 µM; in data set [8] it was 0.225 ± 0.026 µM. The IC50 in data set [9] is 0.7 ± 0.07 µM; in data set [10] it was 0.0658 ± 0.0062 µM; in [11] it was 0.254 ± 0.027 µM; in data set [13], above 2 µM. Besides, the “IC100 (range of IC100 values detected in the three cell lines)” value in data set [6] fell in the range of 1 to 2.5 µM. Further, the IC100 in [12] is listed as above 10 µM.

Turning to `Cc1c(C(=O)O)cncc1-c1ccc(/C=C2\SC(=S)N(CCc3ccccc3)C2=O)o1` [NBCoV9], the IC50 in data set [1] is 0.217 ± 0.022 µM; in data set [2], 1.63 ± 0.118 µM; in data set [3] it was 0.214 ± 0.023 µM; in data set [4], 0.232 ± 0.017 µM; in data set [5], 0.365 ± 0.073 µM; with MERS-CoV pseudovirus (Middle East respiratory syndrome-related coronavirus), around 0.2 µM. In addition, the 50% inhibitory concentration (IC50) in data set [8] was 0.246 ± 0.01 µM; in [9], 0.35 ± 0.015 µM; in data set [10] it was 0.342 ± 0.046 µM; in data set [11] it was 0.596 ± 0.042 µM; in data set [13], above 2 µM. Further, the “IC100 (range of IC100 values detected in the three cell lines)” value in data set [6] lay within 2 to 3 µM. This molecule also had an IC100 in data set [12] above 10 µM.

For the molecule `O=C1C(=Cc2ccc(-c3ccc(Cl)cc3)o2)SC(=S)N1CCc1ccccc1` [NBCoV15, 5-((5-(4-chlorophenyl)furan-2-yl)methylene)-3-phenethyl-2-thioxothiazolidin-4-one], the 50% inhibitory concentration (IC50) in [5] and in [10] was above 2 µM throughout. The “antiviral activity against SARS-CoV-2 pseudovirus” value (from here on “antiviral activity”) in [6] was “virtually no inhibition; also recorded: no antiviral activity; also recorded: no antiviral potency”.

Take `O=C1NC(=S)S/C1=C\c1ccc(-c2ccc(Cl)c(C(=O)O)c2)o1` [NBCoV17]: the CC50 in “in vitro [14]” and in “in vitro [15]” was above 100 µM throughout. Further, the half-maximal inhibitory concentration (IC50) in [5] and in [10] was above 2 µM throughout. Further, the “antiviral activity” value in data set [6] is “no antiviral activity; also recorded: did not show any inhibitory activities”.

With `C#CCN1C(=O)/C(=C/c2ccc(-c3ccc(Cl)c(C(=O)O)c3)o2)SC1=S` [NBCoV28], the CC50 is 92 ± 3 µM in the data set “in vitro [14]” and above 100 µM in the data set “in vitro [15]”. Moreover, the IC50 in [5] and in [10] was above 2 µM each time. For the same molecule, the “antiviral activity” value in [6] is “no antiviral activity; also recorded: did not show any inhibitory activities”.

As for `O=C1NC(=S)S/C1=C\c1ccc(-c2ccc(C(=O)O)cc2)o1` [NBCoV34], the CC50 was around 100 µM in “in vitro [14]” and 83 ± 4 µM in the data set “in vitro [15]”. The IC50 (in [5]; in data set [7]; at β-lactamase; in the data set with Trypsin; in data set [10]) was above 2 µM throughout. The “antiviral activity” value in data set [6] is given as “no antiviral activity; also recorded: no inhibitory activity”.

With `C[C@]12CC[C@H]3[C@@H](CCC4=CC(=O)CC[C@@]43C)[C@@H]1CC[C@@H]2O` [Testosterone, reference compound], in the data set “in vitro [16]”, the half-life stood at 11.3 min and the intrinsic metabolic clearance (microsomal CLint) amounted to 122 µL/min/mg.
